Literature values in patent US8703900B2 (BioAmber Inc., priority 2010, dated 2014).

Conditions: first acid group

## O=C(O)CCCCC(=O)O [AA, adipic acid]
  pKa1: 4.43
